Assay [1] has as its system HLI mouse model. Description: Hindlimb ischemia (HLI) model, PEG-IGF-1: laser Doppler blood flow and limb appearance. It is filed as in vivo, mice. How it is done: (§1) Microvascular blood flow was measured on a laser Doppler imager (Moor Instrument, UK). The blood flow before surgery, 1 day afterwards, every week for the following 4 weeks was recorded for both limbs and before sacrificing the mice. The data are presented as the blood flow ratio of the ischemia limb (left) to the normal limb (right).

Assay [2] relates to apoptotic cells at the HA/AGP4 injection site in the ischemic leg muscle. Description: HLI model, PEG-IGF-1: TUNEL assay of ischemic leg muscle.
Excerpt: The HLI model was created by performing the left femoral artery and iliac artery ligation in mice and then cut to induce hindlimb ischemia (Limbourg et al., Nat. Protocols (2009) 4, 1737-1748.). The administrations for the experimental mice were divided into 3 parts: PEG-IGF-1, PEG-G-CSF, and the combined treatment. The treatment of PEG-IGF-1 and PEG-G-CSF are including five groups: Sham, HLI with the treatment of, 2% HA alone plus therapeutics or HA with AGP4 and followed by PBS or therapeutics. […]
The fixed distal calf and thigh muscles were deparaffinized, rehydrated and boiled in 10 mM sodium citrate (pH 6.0) for 10 minutes, followed by incubation with antibodies against tropomyosin (DHSB, Iowa city, Iowa, USA), WGA and isolectin (Invitrogen, Grand Island, N.Y., USA) at 4° C. overnight, and then incubated with Alexa Fluor 488- or 568-conjugated secondary antibodies (Invitrogen, Carlsbad, Calif., USA). After staining with DAPI (Sigma-Aldrich, St. Louis, Mo., USA), sections were mounted and observed under confocal microscope (LSM 700, Carl Zeiss MicroImaging, Germany) and fluorescence microscope. The capillary and arteriole densities at the border zone were measured and images were taken from 8 randomly-selected ischemic areas (200× magnification) in each sample and quantification was performed by manually counting each section; the 8 values were averaged. […]
Assay [3] relates to HLI mouse model. Description: HLI model, PEG-G-CSF: laser Doppler blood flow and limb appearance. The note with it: HA-alone + PEG-G-CSF. In kind it is in vivo, mice. How it is done:
as §1
(§2) Results are depicted in FIGS. 5B to 5C.

The test system of assay [4] is hematopoietic stem cells (HSCs) and endothelial progenitor cells (EPCs). The experiment in a line: HLI model, PEG-G-CSF: anti-CD34 / anti-CD133 staining of recruited cells. It is filed as in vivo, mice. Conditions: HA/AGP4 + PEG-G-CSF vs HA-alone+PEG-G-CSF and HA/AGP4+PBS.
Excerpt: as §2

These results are taken from patent publication US10912832B2, “Multi-drug delivery system and uses thereof” (Academia Sinica, priority 2014, dated 2021).

For “PEG-IGF-1: PEGylated Insulin Growth Factor-1”, the nail discoloration result in the assay with HLI mouse model [1] (HA-alone + PEG-IGF-1) is “signs of nail discoloration”; in the assay on HLI mouse model [1] (PEG-IGF-1 administered after HA/AGP4), “not obvious”. The “blood flow of ischemic leg compared with sham group” value in the assay with HLI mouse model [1] (HA-alone i.m. + PEG-IGF-1 iv, Day 1 or Day 2) is on record as “no significant improvement”. For the same molecule, the “blood flow at the ischemic leg” value in the assay on HLI mouse model [1] (HA/AGP4 i.m. followed by PEG-IGF-1 iv (30 μg, three doses at 8 hrs interval)) is reported as “did not improve the blood flow”. Moreover, in the assay with HLI mouse model [1] (PEG-IGF-1 injections after HA/AGP4), the ischemic damage entry is given as “minimized the ischemic damage”. The “number of apoptotic cells (TUNEL)” value in assay [2] (HA-alone group, absence of AGP4) was “failed to reduce the number of apoptotic cells”; in assay [2] (PEG-IGF-1 after administration of HA/AGP4), “significant reduction in apoptotic cells”.

B1: PEG-G-CSF: PEGylated Granulocyte Colony-Stimulating Factor (protein, UniProt P09919 31-207, looked up)
Granulocyte …: TPLGPASSLPQSFLLKCLEQVRKIQGDGAALQEKLVSECATYKLCHPEELVLLGHSLGIPWAPLSSCPSQALQLAGCLSQLHSGLFLYQGLLQALEGISPELGPTLDTLQLDVADFATTIWQQMEELGMAPALQPTQGAMPAFASAFQRRAGGVLVASHLQSFLEVSYRVLRHLAQP
modifications: PEGylated
notes: PEGylated Granulocyte Colony-Stimulating Factor
Turning to B1, the nail discoloration entry in the assay with HLI mouse model [3] was “nail discoloration was seen”. In assay [4], the “number of recruited cells at the HA/AGP4 injection sites” value was “increased the number of HSCs (CD133) and ECs (CD34)”.
